Laboratory results reported in patent US20180085423A1, “METHODS FOR TREATING AND DIAGNOSING EATING DISORDERS” (THE TRUSTEES OF COLUMBIA UNIVERSITY IN THE CITY OF NEW YORK, priority 2015, published 2018).
“Also recorded” adds a separate entry of the source. Starred links: 1 amine or outer side, 2 acyl side, 3 side chain; linkers in the order of their positions; H or OH if unused. Positions of bridges follow the written chain, without caps; N, C: chain ends. Residues, ends and D or L forms follow the SMILES beside them. X1 = O=C(CC1(S[*:2])CCCCC1)[*:1]

How the values were obtained:
[1] = tested on: wild-type C57BL6/J females; test: Block of the impact of central injection of AVP (3 ng i.c.v.) on food intake after an overnight fast; format: in vivo, mice; conditions: fasted wild-type females; for reversal of AVP-induced hypophagia (1 hour food intake): peripheral injection, Compound 1 7 μg/kg, SR49059 2 mg/kg, AVP 3 ng i.c.v.
Protocol: First, it was confirmed that the antagonist compounds act as predicted by assessing their ability to block the impact of central injection of AVP (3 ng i.c.v.) on food intake after an overnight fast in wild-type C57BL6/J females.

[2] = tested on: Avpr1a−/− mutants (AVPR1a KO); test: Intra-amygdala AVP injection, food intake in Avpr1a-/- mutants; format: in vivo, mice; conditions: 0.03 ng AVP intra-amygdala vs. saline
Protocol: (§1) In this example, it was tested whether the anorexic effect of AVP can also be achieved by intra-amygdala injections. The amygdala is a long structure extending from −0.58 mm to −2.5 mm to Bregma. To select the stereotaxic coordinates for the injections, qPCR for Avpr1a on serial 200 μm vibratome sections was performed across the entire amygdala. A peak of expression at −1.4 mm was observed. Unilateral injections of 0.03 ng AVP (vs. saline, in a random crossover design) were made into the amygdala of wild-type mice at this position (dorso-ventral −4.5 mm, lateral −2.4 mm (right side) and rostro-caudal −1.4 mm) (see FIG. 13A).
Since AVP can also bind to AVPR1b and OxtR, the intra-amygdala injections were repeated in Avpr1a−/− mutants (AVPR1a KO) as described above for the wild-type mice.

[3] = tested on: wild-type mice; test: Intra-amygdala AVP injection, food intake in wild-type mice; format: in vivo; conditions: 0.03 ng AVP unilateral intra-amygdala vs. saline
Protocol: as §1

[4] = tested on: GED mice; test: Food intake of GED mice during an aphagic episode after i.p. injection of an AVPR1A antagonist; format: in vivo; conditions: for food intake versus saline-injected GED mice, 1 hour after treatment: Compound 1 7 μg/kg, SR49059 2 mg/kg
Protocol: In the morning of the first day of an aphagic episode (≧18 hr of aphagia), GED mice were injected i.p. with 7 μg/kg Compound 1 (Sigma) vs. saline.
To determine the extent to which treatment with Compound 1 rescued the normal drive to re-feed after overnight fast, food intake in a group of saline-injected GED mice that were eating normally were also measured, and were then subjected to an investigator-initiated overnight fast (a condition when AVPR1A should not be elevated in the amygdala) (triangle data points, FIG. 11).
Next, the possibility that AVPR1A antagonists could be used to restore feeding behavior in GED mice during an acute aphagic episode was explored. It was studied whether peripheral injection of Compound 1 and SR49059 can reverse anorexigenic behavior in the GED mouse model. To this end, the impact of i.p. injections of […] of Compound 1 vs. 2 mg/kg SR49059 vs. saline in the morning of the first day of an aphagic episode (≧18 h of aphagia) was assessed.
Mice were given ad libitum access to food immediately after the injection and food intake was measured after 1 hour and 2 hours.

[5] = tested on: wild-type mice; test: Food intake after an overnight fast in wild-type mice injected with Compound 1; format: in vivo; conditions: wild-type mice at 7-8 weeks of age, versus saline
Protocol: It was also investigated whether Compound 1 acts as a generic appetite stimulant. To test this idea, the impact of injecting Compound 1 after an overnight fast in wild-type mice at 7-8 weeks of age (FIG. 11, diamond data points) was tested.

[6] = GED mice during aphagic episode, i.p., 1 hour

Structure (SMILES)	effect of central injection of AVP on food intake ([1]; 3 ng AVP i.c.v. vs. saline)	effect of intra-amygdala AVP on food intake, Avpr1a−/− mutants [2]	effect of intra-amygdala AVP on food intake, wild-type mice [3]	reversal of AVP-induced hypophagia (1 hour food intake) [1]	rescue of food intake at 1 hour relative to normally eating GED mice after overnight fast ([4]; 7 μg/kg dose, 1 hour)	rescue of food intake at 2 hours relative to normally eating GED mice after overnight fast ([4]; 7 μg/kg dose, 2 hour)	food intake versus saline-injected GED mice, 2 hours after treatment ([4]; GED mice during aphagic episode, i.p., 2 hours)	food intake versus saline-injected GED mice, 1 hour after treatment [4, 6]	food intake in wild-type animals after an overnight fast [5]	reversal of AVP-induced hypophagia (1 hour food intake) ([1]; 2 mg/kg)
NC(=O)CC[C@@H]1NC(=O)[C@H](Cc2ccccc2)NC(=O)[C@H](Cc2ccc(O)cc2)NC(=O)[C@@H](N)CSSC[C@@H](C(=O)N2CCC[C@H]2C(=O)N[C@@H](CCCN=C(N)N)C(=O)NCC(N)=O)NC(=O)[C@H](CC(N)=O)NC1=O [AVP, arginine vasopressin]	hypophagia	did not affect food intake; also recorded: anorexic effect is not observed	food intake was reduced							
COc1ccc(CC2NC(=O)CC3(CCCCC3)SSCC(C(=O)N3CCCC3C(=O)NC(CCCN=C(N)N)C(=O)NCC(N)=O)NC(=O)C(CC(N)=O)NC(=O)C(CCC(N)=O)NC(=O)C(Cc3ccccc3)NC2=O)cc1 (stereo not drawn) [Compound 1, 1-(beta-mercapto-betabeta-cycopentamethylenepropionic acid)-2-(O-methyl-Tyr)-argipressin] (Y(Me)FQNCPRG-NH2; linker N-5 via X1; configuration not given here)				can restore 1 hour food intake; also recorded: able to reverse hypophagia	partial rescue	nearly normalized	consumed significantly more food	consumed significantly more food	did not impact food intake	
COc1ccc(S(=O)(=O)N2c3ccc(Cl)cc3[C@](O)(c3ccccc3Cl)[C@@H]2C(=O)N2CCC[C@H]2C(N)=O)cc1OC [SR49059]								did not enhance food intake		did not significantly reverse AVP-induced hypophagia; also recorded: did not have that effect
